These are literature values, as cited in US20150290173A1, “TREATMENT OF SKIN OR MUCOSAL PATHOLOGY” (ZARZATECH, INC., priority 2012, published 2015).

Where a name gives a salt, the structure may show the parent alone.

The conditions of data set [1]: dog gingivitis model.
Another data set relates to crevicular neutrophils. The note with it: topical 0.5% oral rinse, humans.

With `CN/C(=N/CCSCc1nc[nH]c1C)NC#N` [cimetidine HCL], the anti-gingivitis activity entry in data set [1] (dose response study) is listed as “significant anti-gingivitis activity that increased with increasing dose”.
Take `CN/C(=N/CCSCc1nc[nH]c1C)NC#N` [cimetidine, Cimetidine]: in the data set with crevicular neutrophils, the “antibacterial function of crevicular neutrophils” value is “enhanced antibacterial function of crevicular neutrophils” and the “clinical benefit on gingivitis” value is recorded as “no clinical benefit on gingivitis”. In addition, the “gingival inflammation and gingival bleeding” value in data set [1] was “significantly reduced gingival inflammation and gingival bleeding”.
